# From patent publication US8350062B2, “Synthesis and anticancer activity of new actin-targeting small-molecule agents” (priority 2009, dated 2013)
# Tests used:
# Experiment in all cases: NCI 60 cell line single dose screen
# Assay type in all cases: cell-based, human
# UACC-62 = UACC-62 (Melanoma), 10 micromolar, 48 h
# Source text: (§1) Analog 10 was screened utilizing 60 different human tumor cell lines, representing leukemia, melanoma and cancers of the lung, colon, brain, ovary, breast, prostate, and kidney in order to show selective growth inhibition or cell killing of particular tumor cell lines. This screen is unique in that the complexity of a 60 cell line dose response produced by a given compound results in a biological response pattern which can be utilized in pattern recognition algorithms (COMPARE program. See: http://dtp.nci.nih.gov/docs/compare/compare.html). Using these algorithms, it is possible to assign a putative mechanism of action to a test compound, or to determine that the response pattern is unique and not similar to that of any of the standard prototype compounds included in the NCI database. In addition, following characterization of various cellular molecular targets in the 60 cell lines, it may be possible to select compounds most likely to interact with a specific molecular target.
# (§2) The screening is a two-stage process, beginning with the evaluation of the compound against the 60 cell lines at a single dose of 10 uM.
# (§3) The human tumor cell lines of the cancer screening panel are grown in RPMI 1640 medium containing 5% fetal bovine serum and 2 mM L-glutamine. For a typical screening experiment, cells are inoculated into 96 well microtiter plates in 100 μL at plating densities ranging from 5,000 to 40,000 cells/well depending on the doubling time of individual cell lines. After cell inoculation, the microtiter plates are incubated at 37° C., 5% CO2, 95% air and 100% relative humidity for 24 h prior to addition of experimental drug.
# (§4) After 24 h, two plates of each cell line are fixed in situ with TCA, to represent a measurement of the cell population for each cell line at the time of drug addition (Tz). Experimental drugs are solubilized in dimethyl sulfoxide at 400-fold the desired final maximum test concentration and stored frozen prior to use. At the time of drug addition, an aliquot of frozen concentrate is thawed and diluted to twice the desired final maximum test concentration with complete medium containing 50 μg/ml gentamicin.
# (§5) Following drug addition, the plates are incubated for an additional 48 h at 37° C., 5% CO2, 95% air, and 100% relative humidity. For adherent cells, the assay is terminated by the addition of cold TCA. Cells are fixed in situ by the gentle addition of […] of cold 50% (w/v) TCA (final concentration, 10% TCA) and incubated for 60 minutes at 4° C. The supernatant is discarded, and the plates are washed five times with tap water and air dried. Sulforhodamine B (SRB) solution (100 μl) at 0.4% (w/v) in 1% acetic acid is added to each well, and plates are incubated for 10 minutes at room temperature. After staining, unbound dye is removed by washing five times with 1% acetic acid and the plates are air dried. Bound stain is subsequently solubilized with 10 mM trizma base, and the absorbance is read on an automated plate reader at a wavelength of 515 nm. For suspension cells, the methodology is the same except that the assay is terminated by fixing settled cells at the bottom of the wells by gently adding 50 μl of 80% TCA (final concentration, 16% TCA). Using the absorbance measurements [time zero, (Tz), control growth, (C), and test growth in the presence of drug (Ti)], the percentage growth is calculated.
# NCI-H460 = NCI-H460 (Non-Small Cell Lung Cancer), 10 micromolar, 48 h
# Source text: as §1, §2, §3, §4, §5
# U251 = U251 (CNS Cancer), 10 micromolar, 48 h
# Source text: as §1, §2, §3, §4, §5
# SK-MEL-28 = SK-MEL-28 (Melanoma), 10 micromolar, 48 h
# Source text: as §1, §2, §3, §4, §5
# MDA-MB-468 = MDA-MB-468 (Breast Cancer), 10 micromolar, 48 h
# Source text: as §1, §2, §3, §4, §5
# UACC-257 = UACC-257 (Melanoma), 10 micromolar, 48 h
# Source text: as §1, §2, §3, §4, §5
# SF-539 = SF-539 (CNS Cancer), 10 micromolar, 48 h
# Source text: as §1, §2, §3, §4, §5
# ACHN = ACHN (Renal Cancer), 10 micromolar, 48 h
# Source text: as §1, §2, §3, §4, §5
# OVCAR-3 = OVCAR-3 (Ovarian Cancer), 10 micromolar, 48 h
# Source text: as §1, §2, §3, §4, §5
# OVCAR-8 = OVCAR-8 (Ovarian Cancer), 10 micromolar, 48 h
# Source text: as §1, §2, §3, §4, §5
# SF-268 = SF-268 (CNS Cancer), 10 micromolar, 48 h
# Source text: as §1, §2, §3, §4, §5
# RXF 393 = RXF 393 (Renal Cancer), 10 micromolar, 48 h
# Source text: as §1, §2, §3, §4, §5
# NCI/ADR-RES = NCI/ADR-RES (Ovarian Cancer), 10 micromolar, 48 h
# Source text: as §1, §2, §3, §4, §5
# SW-620 = SW-620 (Colon Cancer), 10 micromolar, 48 h
# Source text: as §1, §2, §3, §4, §5
# BT-549 = BT-549 (Breast Cancer), 10 micromolar, 48 h
# Source text: as §1, §2, §3, §4, §5
# A498 = A498 (Renal Cancer), 10 micromolar, 48 h
# Source text: as §1, §2, §3, §4, §5
# HCC-2998 = HCC-2998 (Colon Cancer), 10 micromolar, 48 h
# Source text: as §1, §2, §3, §4, §5
# RPMI-8226 = RPMI-8226 (Leukemia), 10 micromolar, 48 h
# Source text: as §1, §2, §3, §4, §5
# MDA-MB-435 = MDA-MB-435 (Melanoma), 10 micromolar, 48 h
# Source text: as §1, §2, §3, §4, §5
# NCI-H23 = NCI-H23 (Non-Small Cell Lung Cancer), 10 micromolar, 48 h
# Source text: as §1, §2, §3, §4, §5
# CAKI-1 = CAKI-1 (Renal Cancer), 10 micromolar, 48 h
# Source text: as §1, §2, §3, §4, §5
# SR = SR (Leukemia), 10 micromolar, 48 h
# Source text: as §1, §2, §3, §4, §5
smiles,measurement,setting,value
COCCC(=O)NC[C@H](O)[C@H](C)C(=O)NCCC[C@H]1O[C@@]2(CCC[C@@H](CC[C@H](C)/C=C(\C)[C@H](C)O)O2)CCC1C (stereo partly shown) [Analog 10],Growth Percent,UACC-62,48.46%
same,Growth Percent,NCI-H460,48.25%
same,Growth Percent,U251,50.08%
same,Growth Percent,SK-MEL-28,71.16%
same,Growth Percent,MDA-MB-468,29.03%
same,Growth Percent,UACC-257,72.55%
same,Growth Percent,SF-539,40.64%
same,Growth Percent,ACHN,51.57%
same,Growth Percent,OVCAR-3,83.59%
same,Growth Percent,OVCAR-8,90.22%
same,Growth Percent,SF-268,37.08%
same,Growth Percent,RXF 393,26.83%
same,Growth Percent,NCI/ADR-RES,88.16%
same,Growth Percent,SW-620,45.90%
same,Growth Percent,BT-549,29.35%
same,Growth Percent,A498,1.82%
same,Growth Percent,HCC-2998,66.34%
same,Growth Percent,RPMI-8226,58.70%
same,Growth Percent,MDA-MB-435,72.88%
same,Growth Percent,NCI-H23,56.78%
same,Growth Percent,CAKI-1,−37.52%
same,Growth Percent,SR,40.40%
